Measurements as given in PMC8385062, “Deciphering ion transport and ATPase coupling in the intersubunit tunnel of KdpFABC” (Nature Communications, 2021).

Biological target: T1, KdpFABC (nucleotide / vanadate rows, site in KdpB) (Escherichia coli, UniProt P03960, D307N)
T1 construct: heterotetrameric complex, His-tagged KdpC, pBXC3H vector, produced in E. coli LB2003 (lacks endogenous K+ uptake systems), purified; Potassium-transporting ATPase KdpC subunit; Potassium-transporting ATPase KdpF subunit
Assay: cryo-EM structure, […] Å
Format: binding
Details: 5 mM AMPPCP, 50 mM KCl; between N and P domains of KdpB, E1·ATP state

T1 sequence (P03960 whole entry D307N): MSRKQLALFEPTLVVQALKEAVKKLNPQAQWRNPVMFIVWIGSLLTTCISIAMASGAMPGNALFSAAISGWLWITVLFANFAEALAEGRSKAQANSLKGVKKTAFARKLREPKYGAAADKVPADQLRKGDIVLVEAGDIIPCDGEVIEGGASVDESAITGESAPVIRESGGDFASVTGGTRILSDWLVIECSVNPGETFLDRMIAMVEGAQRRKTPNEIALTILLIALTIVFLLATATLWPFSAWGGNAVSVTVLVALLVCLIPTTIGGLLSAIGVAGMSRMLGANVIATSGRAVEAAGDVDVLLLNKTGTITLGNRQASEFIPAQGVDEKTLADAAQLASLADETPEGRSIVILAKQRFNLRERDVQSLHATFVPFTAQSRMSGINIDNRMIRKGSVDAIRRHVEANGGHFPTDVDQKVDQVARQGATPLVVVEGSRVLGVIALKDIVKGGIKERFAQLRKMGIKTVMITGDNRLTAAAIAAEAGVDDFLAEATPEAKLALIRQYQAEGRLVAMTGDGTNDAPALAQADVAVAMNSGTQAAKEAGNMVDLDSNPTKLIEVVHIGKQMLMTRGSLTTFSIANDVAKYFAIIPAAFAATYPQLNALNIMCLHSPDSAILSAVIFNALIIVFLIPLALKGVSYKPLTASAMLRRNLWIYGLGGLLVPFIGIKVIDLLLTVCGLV
T1 sequence (P03959 whole entry partner): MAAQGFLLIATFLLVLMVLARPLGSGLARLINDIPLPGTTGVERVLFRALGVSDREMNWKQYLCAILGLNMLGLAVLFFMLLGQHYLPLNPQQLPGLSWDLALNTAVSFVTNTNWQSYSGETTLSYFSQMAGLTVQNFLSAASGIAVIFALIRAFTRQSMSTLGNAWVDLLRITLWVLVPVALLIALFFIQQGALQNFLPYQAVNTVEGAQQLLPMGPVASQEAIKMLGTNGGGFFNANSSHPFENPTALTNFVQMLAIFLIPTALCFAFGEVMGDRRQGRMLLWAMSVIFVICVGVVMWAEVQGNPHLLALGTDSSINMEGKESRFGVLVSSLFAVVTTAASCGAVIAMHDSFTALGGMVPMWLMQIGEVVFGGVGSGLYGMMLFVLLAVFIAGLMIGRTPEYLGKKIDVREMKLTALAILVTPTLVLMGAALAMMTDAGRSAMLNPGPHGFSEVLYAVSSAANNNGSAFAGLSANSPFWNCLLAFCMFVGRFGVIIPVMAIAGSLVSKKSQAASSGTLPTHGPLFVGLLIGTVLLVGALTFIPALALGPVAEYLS
T1 sequence (P03961 whole entry partner): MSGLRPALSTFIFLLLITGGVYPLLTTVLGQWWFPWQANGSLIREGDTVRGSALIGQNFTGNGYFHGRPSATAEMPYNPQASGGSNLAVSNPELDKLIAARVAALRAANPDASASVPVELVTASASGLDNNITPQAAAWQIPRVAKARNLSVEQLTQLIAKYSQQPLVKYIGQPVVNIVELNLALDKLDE
T1 sequence (P36937 whole entry partner): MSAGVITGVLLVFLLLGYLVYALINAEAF

Structure (SMILES): Nc1ncnc2c1ncn2[C@@H]1O[C@H](COP(=O)(O)OP(=O)(O)CP(=O)(O)O)[C@@H](O)[C@H]1O [AMPPCP]
- cryo-EM structure, 3.1 Å: The nucleotide AMPPCP is coordinated between the N and P domains
